Results from patent publication US7683185B2, “Histone deacetylase inhibitors” (Queen Mary & Westfield College, priority 2002, dated 2010).
Where two headings read alike, the source gives them in different places.

Key:
[1] = biological target: rat liver HDAC; assay: HDAC activity assay with partially purified rat liver HDAC enzyme (MAL substrate); format: biochemical
Protocol: The activity of the compounds as inhibitors of histone deacetylase was investigated using a modified assay based on a rapid in vitro HDAC activity assay (based on the deacetylation of an Ω-acetylated lysine (MAL)) and described by Hoffman et al. in Nucl. Acids. […] The reaction was terminated with 100 μl acetonitrile, and MAL and the deacetylated produce (ML) were determined in the supernatant. […] MAL and ML peak heights were used to derive the percentage MAL in the mixture as the ration of MAL: MAL+ML.

[2] = tested on: T1, whole cell HDAC activity (CEM cells); assay: Whole cell HDAC activity assay in intact CEM cells (MAL substrate); format: cell-based
T1 construct: other: intact CEM cells
Protocol: The fluorescent substrate MAL has been used in a novel assay established and validated by Dr. Joel for the determination of HDAC activity in intact cells.
1×10^6 CEM cells in 1 ml medium were exposed to inhibitors at 6 concentrations for 60 minutes, after which MAL at 20 μg/ml (5 μg/mL final concentration) was added for a further 30 minutes, all at 37° C. Cells were then rapidly washed at 4° C., lysed by sonication, the reaction stopped with acetonitrile, and MAL and the deacetylated product determined in the supernatant by rapid HPLC.
Chromatographic separation of MAL and ML was carried out using a 15 cm Apex ODS 5 μM column with acetonitrile/distilled water (40:60), 2% trifluoracetic acid (TFA) v/v mobile phase at a flow rate of 1.2 ml/minute.
The activity of each inhibitor was assessed at a minimum of 5 non-zero concentrations. MAL and ML peak heights were used to derive the percentage MAL in the mixture as the ration of MAL: MAL+ML.

[3] = tested on: CEM cells; assay: Percentage viability in CEM cells (3-day exposure); format: cell-based
[4] = tested on: whole cell HDAC activity (CEM cells); assay: Whole cell HDAC assay modified for 24-hour incubation with CEM cells as indicator of in vitro compound stability
[5] = rat liver HDAC preparation, 60 minutes at 37° C., read-out: HDAC inhibitory activity (IC50) μM Liver preparation
[6] = intact CEM cells, inhibitor 60 minutes then MAL 30 minutes, read-out: HDAC inhibitory activity (IC50) μM CEM cells
[7] = CEM cells (Table 2), read-out: HDAC inhibitory activity CEM cells (IC50)
[8] = Homo sapiens, CCRF-CEM, 72 h, Table 2, CEM cells, 3-day exposure, read-out: % Viability (IC50)
[9] = rat liver HDAC, read-out: HDAC activity IC50, rat liver HDAC
[10] = intact CEM cells, read-out: HDAC activity IC50, CEM cells

Row | Molecule | IC50 [1, 5] | IC50 [2, 6] | IC50 [2, 7] | IC50 [3, 8] | decrease in HDAC inhibitory activity between 1 and 24 hours incubation [4] | IC50 [1, 9] | IC50 [2, 10] | other results
1 | O=C(/C=C/C=C/CS(=O)(=O)c1ccccc1)NO [CM4, 6-benzenesulfonyl-hexa-2,4-dienoic acid hydroxamide] | 0.8 ± 0.3 µM | 3.3 ± 1.3 µM |  |  |  |  |  | 
2 | O=C(/C=C/C=C/C[S+]([O-])c1ccc(Cl)cc1)NO (stereo not drawn) [UCL 2002, 6-(4-Chlorobenzenesulfinyl)-hexa-2,4-dienoic acid hydroxyamide] | 0.4 ± 0.1 µM | 1.2 ± 0.4 µM | 1.58 µM | 1.57 µM | no decrease in activity |  |  | IC50 ([1]; purified liver HDAC (Table 2), read-out: HDAC inhibitory activity Purified liver (IC50)): 0.31 µM
3 | O=C(CCCCC[S+]([O-])c1ccc(Cl)cc1)NO (stereo not drawn) [UCL 2007, 6-(4-Chloro-benzenesulfinyl)-hexanoic acid hydroxyamide] |  |  | 1.28 µM | 2.56 µM | no decrease in activity |  |  | 
4 | CC=CC=CC(=O)NO [hexa-2,4-dienic acid hydroxamide, reference compound] |  |  |  |  |  | 0.8 ± 0.7 µM | 47 ± 17 µM | 
5 | CC(/C=C/C(=O)NO)=C\[C@@H](C)C(=O)c1ccc(N(C)C)cc1 [trichostatin, Trichostatin A, reference compound] |  |  |  |  | greater than 90% |  |  | IC50 ([3]; Homo sapiens, CCRF-CEM, 72 h, read-out: % viability (IC50) μM): 0.082 ± 0.011 µM
6 | sodium phenyl-butyrohydroxamic acid [NaPBHA, reference compound] |  |  |  |  |  | 6.2 ± 2 µM | 158 ± 99 µM | IC50 ([3]; CEM cells, 3-day exposure, read-out: IC50 values for percentage viability): 138 ± 28 µM
